Results reported in US11634442B2, “Methods for the purification of L-glufosinate” (BASF SE, priority 2017, dated 2023).

Experiment: Solid form stability on storage over desiccant (XRPD, ion chromatography)
Protocol: X-ray Power Diffraction (XRPD), Reflection Mode: XRPD patterns were collected with a PANalytical X'Pert PRO MPD diffractometer using an incident beam of Cu Kα radiation produced using a long, fine-focus source and a nickel filter. The diffractometer was configured using the symmetric Bragg-Brentano geometry. […] A specimen of the sample was prepared as a thin, circular layer centered on a silicon zero-background substrate. Antiscatter slits (SS) were used to minimize the background generated by air. Soller slits for the incident and diffracted beams were used to minimize broadening from axial divergence. Diffraction patterns were collected using a scanning position-sensitive detector (X'Celerator) located 240 mm from the sample and Data Collector software v. 2.2b.
XRPD, Transmission Mode: XRPD patterns were collected with a PANalytical X'Pert PRO MPD diffractometer using an incident beam of Cu radiation produced using an Optix long, fine-focus source. An elliptically graded multilayer mirror was used to focus Cu Kα X-rays through the specimen and onto the detector. […] A specimen of the sample was sandwiched between 3-μm-thick films and analyzed in transmission geometry. A beam-stop, short antiscatter extension, antiscatter knife edge were used to minimize the background generated by air. Soller slits for the incident and diffracted beams were used to minimize broadening from axial divergence. Diffraction patterns were collected using a scanning position-sensitive detector (X'Celerator) located 240 mm from the specimen and Data Collector software v. 2.2b.
Form B was characterized by ^1H NMR, IC, DSC, and TGA.

In the case of CP(=O)(O)CC[C@H](N)C(=O)O.N [Form A], the “form change by XRPD upon storage over desiccant” value (Form A from 93/7 v/v methanol/water slurry, storage time not given) is reported as “converted to Form B with minor additional peaks” and the “overall assessment of form stability” value (prone to conversion to Form B) is reported as “metastable”.
With CP(=O)(O)CC[C@H](N)C(=O)O [Form D] the “change in XRPD pattern upon storage over desiccant” value (sample of Form D+minor Form A, storage time not given) was “No significant changes”.
With CP(=O)(O)CC[C@H](N)C(=O)O [Form B] the “change in XRPD pattern upon storage over desiccant for 47 days” value (47 days over desiccant) was “No significant changes”.
In the case of CP(=O)(O)CC[C@H](N)C(=O)O.N [Form C], the “ammonium content by IC after storage under desiccant for 36 days” value (sample of Form C with minor Form A, 6.3 wt % initially) is reported as 3.2 wt % and the “form change by XRPD after storage under desiccant for 36 days” value (sample of Form C with minor Form A, 36 days under desiccant) is reported as “conversion to Form B with minor Form A and a few minor additional peaks”.
